Assays:
[1] = system: THP-1 cells; experiment: Maturation of THP-1 cells assessed by up-regulation of co-stimulatory molecules CD86 and CD54
Procedure: In an embodiment, the THP-1 cell line has been used as a dendritic cell (DC) surrogate for skin sensitizers hazard, following the OECD guidelines. […] The THP-1 cells are stabilized overnight at a density of 5×10^5 cells/mL. On the day after, cells are seeded in 12-well plates at a density of 8×10^5 cells/well and incubated for 24 h with medium (control), Dimethyl sulfoxide (DMSO) (allergens solvent) or with 20 mM of each inhibitor of ACD (NAC), (LYS) or mixture (NAC+LYS). In addition, sensitization is induced with the strong skin allergen 1-fluoro-2,4-dinitrobenzene (DNFB) (8 μM) or Methylisothiazolinone (MI) (100 μM) for 24 h. At the end of the incubation period, cells are washed with ice-cold PBS supplemented with 1% (v/v) inactivated FBS, centrifuged at 300×g for 5 min at 4° C. and pellets are dissolved in ice-cold PBS supplemented with 1% (v/v) inactivated FBS. Then, 100 µL of the cell suspension are incubated with, or without, 3 μL of anti-human CD54 antibody (#353111, Biolegend, San Diego, CA, USA) or anti-human CD86 (#305414, Biolegend, San Diego, CA, USA) antibody for 30 min at 4° C. […] A total of 1×10^4 living cells are considered for analysis. The CD86 and CD54 levels are analyzed by flow cytometry with the acquisition channels FL1 and FL4. Based on the geometric mean fluorescence intensity (MFI), the relative fluorescence intensity (RFI) of CD86 and CD54 for positive control cells and chemical-treated cells is calculated according to the following equation: […]

[2] = In vitro release testing (IVRT), Franz cells, cellulose membrane; format: in vitro ADME; conditions: n=6; for dose depletion: 6 h
Procedure: In an embodiment, release studies of the hydrogels were performed on static vertical Franz cells (PermeGear, Inc., USA), with a diffusion circular area of 0.636 cm^2 and a receptor compartment of 5 mL. For that, infinite dose conditions (1 g) of the formulations were applied in the upper compartment, separated from the receptor by a cellulose membrane (MWCO≈14 000 Da, flat width 33 mm, Sigma-Aldrich), previously hydrated in ultrapurified water for at least 30 min. Before the experiments, the system was equilibrated for a minimum of 30 min. The release medium was composed of phosphate buffer pH 5.5 (guaranteeing the maintenance of sink conditions) and continuously stirred at 600 rpm, at 37° C. A circulating water bath maintained the membrane surface temperature at 32° C. During the release studies, the donor compartment, as well as the receptor sampling arm, were carefully covered to avoid medium evaporation, as well as to conduct the experiments under occlusive conditions. At predetermined time points (0.25, 0.5, 0.75, 1, 2, 3, 4 and 6 h), 300 μl of the medium were withdrawn and immediately replenished with fresh medium. NAC and LYS were quantified by HPLC (High-performance liquid chromatography). Release studies were conducted considering n=6 samples.
In an embodiment, the cumulative amount of NAC and LYS released over time was calculated according to the equation:
[formula] • where Cn is the API (active pharmaceutical ingredient) concentration of the receptor medium at each sampling time, Ci is the API concentration of the ith sample, A the effective diffusion area (0.636 cm^2), and VO (5 mL) and Vi (300 μL) the volumes of the receptor compartment and the collected sample, respectively.
In an embodiment, the release rates were retrieved from the slope of the linear regression obtained by plotting the cumulative amount of API diffused per cm^2 as a function of the square root of time. Additionally, mass balance studies were performed to characterize the extent of dose depletion, according to the equation:
[formula] • where Qf reflects the average cumulative amount released at the end of the assay and Qi the initial amount of API placed on the membrane.
(§1) In an embodiment, NAC and LYS were quantified by reversed-phase high-pressure liquid chromatography (RP-HPLC), using a Shimadzu LC-2010HT chromatographic system, equipped with an LC-20AD quaternary pump, a SIL-20AHT autosampler, a CTO-10AS over and an SPD-M2OA photodiode array detector. […] Using an injection volume of 50 μL, NAC and LYS were determined at 200 and 215 nm and eluted at 5.4 and 2.2 min, respectively.

[3] = In vitro permeation studies (IVPT), Franz cells; format: in vitro ADME, human; conditions: formulated in the hydrogel, single application, up to 24 h, non-occlusive
Excerpt: In an embodiment, the same vertical diffusional system of IVRT studies was used to evaluate the potential in vitro penetration of the active molecules. Human surgical skin pieces (person, type 3 skin, arm tissue) were surgically removed at Central Lisbon University Hospital Centre, after the approval of the Bioethics Committee, and processed as described in (Miranda et al., 2020). Written informed consent was obtained from the participant (Process number 447/2017). One day before the experiments, frozen epidermal specimens were left to thaw at room temperate. Afterwards, the skin sheets, with the stratum corneum side facing up, were gently placed on glass flasks filled with ultrapurified water and left to stabilize overnight, at 4° C. […] NAC and LYS were quantified by RP-HPLC, as described in the section above. […]
as §1

Compound | levels of the co-stimulatory molecules CD54 and CD86 (RFI), incubated alone ([1]; THP-1, 24 h, 20 mM, no allergen) | dose depletion [2] | Tlag (time-lagged values) [2] | quantity of the active molecules in the receptor compartment (penetration of stratum corneum of human skin) [3] | CD54 and CD86 maturation levels, pre-incubation before allergen ([1]; pre-incubation (20 mM) before 24 h DNFB (8 μM) and MI (100 μM))
NCCCC[C@H](N)C(=O)O [LYS, lysine] | do not significantly modify | roughly 17% | approximately 0 h | below the limit of quantification | 
CC(=O)N[C@@H](CS)C(=O)O [NAC, n-acetyl cysteine] |  | roughly 17% | approximately 0 h | below the limit of quantification | significantly decrease

From US20260263401A1, “Topical composition and uses thereof” (UNIVERSIDADE DE COIMBRA, priority 2022, published 2026)
